For 15 molecules, EC50 and Emax results are on record in US8969338B2, “Ethynyl derivatives” (Hoffmann-La Roche Inc., priority 2011, dated 2015).

The target in the experiment is T1, human mGlu5a receptor (Homo sapiens, UniProt P41594).
T1 construct: expressed in transfected cells
The experiment is described as follows: Intracellular Ca2+ mobilization assay (mGlu5 PAM). The format is cell-based. To be noted: for EC50: HEK-293 cells stably transfected with human mGlu5a, L-glutamate added at EC20 after pre-incubation with test compound, read-out: EC50 (nM) mGlu5PAM; for Emax: maximal response in % of the maximal stimulatory effect obtained with saturating concentrations of L-glutamate, read-out: Eff. (%). As to the method:
A monoclonal HEK-293 cell line stably transfected with a cDNA encoding for the human mGlu5a receptor was generated; for the work with mGlu5 Positive Allosteric Modulators (PAMs), a cell line with low receptor expression levels and low constitutive receptor activity was selected to allow the differentiation of agonistic versus PAM activity. Cells were cultured according to standard protocols (Freshney, 2000) in Dulbecco's Modified Eagle Medium with high glucose supplemented with 1 mM glutamine, 10% (vol/vol) heat-inactivated bovine calf serum, Penicillin/Streptomycin, 50 μg/ml hygromycin and 15 μg/ml blasticidin (all cell culture reagents and antibiotics from Invitrogen, Basel, Switzerland).
About 24 hrs before an experiment, 5×10^4 cells/well were seeded in poly-D-lysine coated, black/clear-bottomed 96-well plates. The cells were loaded with 2.5 μM Fluo-4AM in loading buffer (1×HBSS, 20 mM HEPES) for 1 hr at 37° C. and washed five times with loading buffer. The cells were transferred into a Functional Drug Screening System 7000 (Hamamatsu, Paris, France), and 11 half logarithmic serial dilutions of test compound at 37° C. were added and the cells were incubated for 10-30 min, with on-line recording of fluorescence. Following this pre-incubation step, the agonist L-glutamate was added to the cells at a concentration corresponding to EC20 (typically around 80 μM) with on-line recording of fluorescence; in order to account for day-to-day variations in the responsiveness of cells, the EC20 of glutamate was determined immediately ahead of each experiment by recording of a full dose-response curve of glutamate.
Responses were measured as peak increase in fluorescence minus basal (i.e. fluorescence without addition of L-glutamate), normalized to the maximal stimulatory effect obtained with saturating concentrations of L-glutamate. Graphs were plotted with the % maximal stimulatory using XLfit, a curve fitting program that iteratively plots the data using Levenburg Marquardt algorithm. The single site competition analysis equation used was y=A+((B−A)/(1+((x/C)D))), where y is the % maximal stimulatory effect, A is the minimum y, B is the maximum y, C is the EC50, x is the log 10 of the concentration of the competing compound and D is the slope of the curve (the Hill Coefficient). From these curves the EC50 (concentration at which half maximal stimulation was achieved), the Hill coefficient as well as the maximal response in % of the maximal stimulatory effect obtained with saturating concentrations of L-glutamate were calculated.
A depression of the signal observed after addition of the EC20 concentration of L-glutamate was indicative of an inhibitory activity of the test compound.
In general terms: Calcium assays in cells follow changes in intracellular calcium, usually with a dye or a luminescent sensor.

T1 sequence (P41594 21-1180 isoform P41594-2 limits assumed): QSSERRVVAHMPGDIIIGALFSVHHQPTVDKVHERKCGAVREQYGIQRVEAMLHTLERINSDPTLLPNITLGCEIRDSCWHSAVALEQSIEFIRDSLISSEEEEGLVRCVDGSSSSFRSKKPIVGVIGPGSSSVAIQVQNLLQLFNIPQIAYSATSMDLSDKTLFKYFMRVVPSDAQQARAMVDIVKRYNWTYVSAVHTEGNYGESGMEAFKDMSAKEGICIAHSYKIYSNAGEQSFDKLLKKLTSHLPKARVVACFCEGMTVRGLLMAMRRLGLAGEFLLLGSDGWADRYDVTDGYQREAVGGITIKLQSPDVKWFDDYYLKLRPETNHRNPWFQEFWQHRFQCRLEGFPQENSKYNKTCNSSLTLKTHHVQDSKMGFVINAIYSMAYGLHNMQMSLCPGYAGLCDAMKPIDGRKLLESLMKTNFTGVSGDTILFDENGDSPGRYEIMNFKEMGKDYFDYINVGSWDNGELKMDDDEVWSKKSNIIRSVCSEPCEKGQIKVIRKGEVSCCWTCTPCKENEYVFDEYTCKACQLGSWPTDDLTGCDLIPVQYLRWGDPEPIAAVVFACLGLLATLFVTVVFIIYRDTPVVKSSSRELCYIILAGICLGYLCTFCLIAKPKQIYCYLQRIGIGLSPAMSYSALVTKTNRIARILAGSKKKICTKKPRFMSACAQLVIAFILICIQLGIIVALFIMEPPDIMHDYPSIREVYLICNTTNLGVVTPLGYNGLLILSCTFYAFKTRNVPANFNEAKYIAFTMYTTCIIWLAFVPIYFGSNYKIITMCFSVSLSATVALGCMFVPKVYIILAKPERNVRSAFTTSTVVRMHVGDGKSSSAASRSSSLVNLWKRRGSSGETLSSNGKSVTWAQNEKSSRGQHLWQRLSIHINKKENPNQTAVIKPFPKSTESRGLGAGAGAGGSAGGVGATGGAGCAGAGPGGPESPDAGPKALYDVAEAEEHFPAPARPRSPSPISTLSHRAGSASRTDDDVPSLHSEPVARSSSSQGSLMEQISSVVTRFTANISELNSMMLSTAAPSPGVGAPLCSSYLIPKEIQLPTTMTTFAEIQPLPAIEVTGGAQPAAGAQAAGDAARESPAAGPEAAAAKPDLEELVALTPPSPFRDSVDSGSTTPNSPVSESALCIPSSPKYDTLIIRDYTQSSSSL

In the case of `CCN1C(=O)N(c2cnc(C#Cc3ccccc3)nc2)CC1(C)C` [Example 11, 3-Ethyl-4,4-dimethyl-1-(2-phenylethynyl-pyrimidin-5-yl)-imidazolidin-2-one], the EC50 (commonly the concentration needed to bring the measured effect to its halfway point) was 79 nM and the Emax amounted to 52%.

Turning to `CN1C(=O)N(c2ccc(C#Cc3cccnc3)nc2)CC1(C)C` [Example 6, 3,4,4-Trimethyl-1-(6-pyridin-3-ylethynyl-pyridin-3-yl)-imidazolidin-2-one], the EC50 was found to be 241 nM and the Emax was 36%.

As for `CN1N(c2ccc(C#Cc3cc(F)ccc3F)nc2)C(=O)CC1(C)C` [Example 14, 2-[6-(2,5-Difluoro-phenylethynyl)-pyridin-3-yl]-1,5,5-trimethyl-pyrazolidin-3-one], the EC50 was determined as 53 nM and the Emax is 57%.

Consider `CC1(C)CC(=O)N(c2ccc(C#Cc3ccccc3)nc2)C1` [Example 1, 4,4-Dimethyl-1-(6-phenylethynyl-pyridin-3-yl)-pyrrolidin-2-one], for which the EC50 was determined as 49 nM and the Emax is 75%.

Consider `CC1(C)CC(=O)N(c2cnc(C#Cc3ccccc3)nc2)C1` [Example 9], for which the EC50 came out at 36 nM and the Emax was determined as 39%.

On to `CC1(C)CC(=O)N(c2ccc(C#Cc3cc(F)ccc3F)nc2)N1` [Example 16, 2-[6-(2,5-Difluoro-phenylethynyl)-pyridin-3-yl]-5,5-dimethyl-pyrazolidin-3-one], for which the EC50 worked out at 40 nM and the Emax was found to be 41%.

Take `CN1N(c2ccc(C#Cc3cccc(F)c3)nc2)C(=O)CC1(C)C` [Example 13, 2-[6-(3-Fluoro-phenylethynyl)-pyridin-3-yl]-1,5,5-trimethyl-pyrazolidin-3-one]: the EC50 was 38 nM and the Emax is 63%.

Turning to `CC1(C)CCN(c2ccc(C#Cc3ccccc3)nc2)C(=O)O1` [Example 2, 6,6-Dimethyl-3-(6-phenylethynyl-pyridin-3-yl)-[1,3]oxazinan-2-one], the EC50 was 96 nM and the Emax came to 85%.

In the case of `CN1N(c2ccc(C#Cc3ccccc3)nc2)C(=O)CC1(C)C` [Example 12, 1,5,5-Trimethyl-2-(6-phenylethynyl-pyridin-3-yl)-pyrazolidin-3-one], the EC50 came to 40 nM and the Emax came to 66%.

As to `CN1C(=O)N(c2ccc(C#Cc3cccc(F)c3)nc2)CC1(C)C` [Example 5, 1-[6-(3-Fluoro-phenylethynyl)-pyridin-3-yl]-3,4,4-trimethyl-imidazolidin-2-one], the EC50 was determined as 19 nM and the Emax is 42%.

As for `CN1C(=O)N(c2ccc(C#Cc3ccc(F)cc3)nc2)CC1(C)C` [Example 4, 1-[6-(4-Fluoro-phenylethynyl)-pyridin-3-yl]-3,4,4-trimethyl-imidazolidin-2-one], the EC50 was determined as 50 nM and the Emax stood at 44%.

`CC1(C)CC(=O)N(c2ccc(C#Cc3ccccc3)nc2)N1` [Example 8, 5,5-Dimethyl-2-(6-phenylethynyl-pyridin-3-yl)-pyrazolidin-3-one]: the EC50 was 62 nM and the Emax is 56%.

`CC1(C)CC(=O)N(c2ccc(C#Cc3cccc(F)c3)nc2)C1` [Example 7, 1-[6-(3-Fluoro-phenylethynyl)-pyridin-3-yl]-4,4-dimethyl-pyrrolidin-2-one]: the EC50 was 39 nM and the Emax was found to be 62%.

Consider `CC1(C)CC(=O)N(c2ccc(C#Cc3cccc(F)c3)nc2)N1` [Example 15, 2-[6-(3-Fluoro-phenylethynyl)-pyridin-3-yl]-5,5-dimethyl-pyrazolidin-3-one], for which the EC50 worked out at 68 nM and the Emax was 38%.

Take `CN1C(=O)N(c2ccc(C#Cc3ccccc3)nc2)CC1(C)C` [Example 3, 3,4,4-Trimethyl-1-(6-phenylethynyl-pyridin-3-yl)-imidazolidin-2-one]: the EC50 worked out at 15 nM and the Emax is 45%.
